Reference: patent US20200278355A1, “CONJUGATED PROTEINS AND USES THEREOF” (THE SCRIPPS RESEARCH INSTITUTE, priority 2017, published 2020)

Target: T1, NR0B1 (Homo sapiens, UniProt P51843)
T1 construct: H460 cells or H460 cells expressing luciferase in a 10 cm plate were incubated with indicated compounds; endogenous in cells; host or cells: H460 (NSCLC, KEAP1-mutant)
T1 sequence (P51843 1-470): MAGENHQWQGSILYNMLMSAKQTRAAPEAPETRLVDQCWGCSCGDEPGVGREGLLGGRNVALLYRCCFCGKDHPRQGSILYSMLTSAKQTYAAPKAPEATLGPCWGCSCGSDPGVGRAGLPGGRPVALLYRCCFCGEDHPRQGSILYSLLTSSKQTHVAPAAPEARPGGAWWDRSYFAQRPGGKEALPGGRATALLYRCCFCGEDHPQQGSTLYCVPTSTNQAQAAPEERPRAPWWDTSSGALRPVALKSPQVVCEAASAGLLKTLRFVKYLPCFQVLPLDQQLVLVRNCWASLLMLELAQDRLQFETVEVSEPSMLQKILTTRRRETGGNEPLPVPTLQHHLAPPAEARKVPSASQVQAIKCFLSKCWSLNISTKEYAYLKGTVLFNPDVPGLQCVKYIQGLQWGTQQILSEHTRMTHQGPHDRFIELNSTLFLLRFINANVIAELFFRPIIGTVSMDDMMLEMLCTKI
Assay: isoTOP-ABPP of compound-treated H460 cells: NR0B1
Assay type: cell-based
Conditions: for receptor occupancy at 40 µM: NCI-H460, 40 μM for 3 h, read-out: target occupancy of C274 of NR0B1
Experimental: For analysis of NR0B1 ligands or control compound reactivity, H460 cells or H460 cells expressing luciferase in a 10 cm plate were incubated with indicated compounds in serum/dye-free RPMI for 3 hours at 37° C. Cells were washed once ice-cold PBS and lysed in 1% Triton X-100 dissolved in PBS with protease inhibitors (Sigma) by sonication. Samples were clarified by centrifugation for 10 min at 16,000×g. Lysate was adjusted to 1.5 mg ml^−1 in 500 μL.
Samples were labeled for 1 h at ambient temperature with 100 μM iodoacetamide alkyne (1, IA-alkyne, 5 μL of 10 mM stock in DMSO). Samples were conjugated by copper-catalyzed azide-alkyne cycloaddition (CuAAC) to isotopically labeled, TEV-cleavable tags (TEV-tags). Heavy CuAAC reaction mixtures was added to the DMSO-treated or shGFP control samples and light CuAAC reaction mixture was added to compound-treated or shNRF2 samples. The CuAAC reaction mixture consisted of TEV tags (light or heavy, 10 μL of 5 mM stocks in DMSO, final concentration=100 μM), 1 mM tris(2-carboxyethyl)phosphine hydrochloride (TCEP; fresh 50× stock in water, final concentration=1 mM), ligand (17× stock in DMSO:t-butanol 1:4, final concentration=100 μM) and 1 mM CuSO4 (50× stock in water, final concentration=1 mM). The samples were allowed to react for 1 h at which point the samples were centrifuged (16,000×g, 5 min, 4° C.). The resulting pellets were sonicated in ice-cold methanol (500 μL) and the resuspended light- and heavy-labeled samples were then combined pairwise and centrifuged (16,000×g, 5 min, 4° C.). The pellets were solubilized in PBS containing 1.2% SDS (1 mL) with sonication and heating (5 min, 95° C.) and any insoluble material was removed by an additional centrifugation step at ambient temperature (14,000×g, 1 min).
For each sample, 100 μL of streptavidin-agarose beads slurry (Fisher) was washed in 10 mL PBS and then resuspended in 6 mL PBS (final concentration 0.2% SDS in PBS). The SDS-solubilized proteins were added to the suspension of streptavidin-agarose beads and the bead mixture was rotated for 3 h at ambient temperature. After incubation, the beads were pelleted by centrifugation (1,400×g, 3 min) and were washed (2×10 mL PBS and 2×10 mL water).
The beads were transferred to eppendorftubes with 1 mL PBS, centrifuged (1,400×g, 3 min), and resuspended in PBS containing 6 M urea (500 μL). To this was added 10 mM DTT (25 μL of a 200 mM stock in water) and the beads were incubated at 65° C. for 15 mins. 20 mM iodoacetamide (25 μL of a 400 mM stock in water) was then added and allowed to react at 37° C. for 30 mins with shaking. The bead mixture was diluted with 900 μL PBS, pelleted by centrifugation (1,400×g, 3 min), and resuspended in PBS containing 2 M urea (200 μL). To this was added 1 mM CaCl2 (2 μL of a 200 mM stock in water) and trypsin (2 μg, Promega, sequencing grade) and the digestion was allowed to proceed overnight at 37° C. with shaking. The beads were separated from the digest with Micro Bio-Spin columns (Bio-Rad) by centrifugation (1,000×g, 1 min), washed (2×1 mL PBS and 2×1 mL water) and then transferred to fresh eppendorf tubes with 1 mL water. The washed beads were washed once further in 140 μL TEV buffer (50 mM Tris, pH 8, 0.5 mM EDTA, 1 mM DTT) and then resuspended in 140 μL TEV buffer. 5 μL TEV protease (80 μM) was added and the reactions were rotated overnight at 29° C. The TEV digest was separated from the beads with Micro Bio-Spin columns by centrifugation (1,400×g, 3 min) and the beads were washed once with water (100 μL). The samples were then acidified to a final concentration of 5% (v/v) formic acid and stored at −80° C. prior to analysis.
Samples processed for multidimensional liquid chromatography tandem mass spectrometry (MudPIT) were pressure loaded onto a 250 μm (inner diameter) fused silica capillary columns packed with C18 resin (Aqua 5 μm, Phenomenex). […]

Structure (SMILES)	cysteines in NR0B1 engaged among several quantified cysteines (40 μM, 3 h)	receptor occupancy at 40 µM (NSCLC cells)	BPK-29-competed isoTOP-ABPP analysis (NR0B1 C274, 40 μM)	relative potency of C274 engagement (NSCLC cells)	engagement of C274 (NSCLC cells, 5 μM, 3 h)	engagement of C274 of NR0B1 (NSCLC cells, 40 μM, 3 h)
O=C(c1ccc(N2CCOCC2)cc1)N1CCCC(N(Cc2ccccc2)C(=O)CCl)CC1 (centres unmarked) [BPK-29, N-benzyl-2-chloro-N-(1-(4-morpholinobenzoyl)azepan-4-yl)acetamide]	the only cysteine in NR0B1 engaged	~70%	Yes (Competed defined as showing R value ≥ 3.0 at 40 μM of test compound)	superior potency compared to BPK-26	> 50%	–
O=C(c1ccc(N2CCOCC2)cc1)N1CCC(CN(C(=O)CCl)c2cncnc2)CC1 [BPK-9, 2-chloro-N-((1-(4-morpholinobenzoyl)piperidin-4-yl)methyl)-N-(pyrimidin-5-yl)acetamide]	–	–	–	–	–	did not engage C274
O=C(CCl)N(Cc1cccc(Cl)c1F)c1ccc(Cl)nc1 [BPK-26, 2-chloro-N-(3-chloro-2-fluorobenzyl)-N-(6-chloropyridin-3-yl)acetamide]	the only cysteine in NR0B1 engaged	~70%	–	–	–	–
